In patent publication US20010011075A1, “5'-SUBSTITUTED-RIBOFURANOSYL BENZIMIDAZOLES AS ANTIVIRAL AGENTS” (priority 1999, published 2001):

Legend:
[1] = tested on: HFF cells; experiment: Visual cytotoxicity in stationary HFF cells at time of plaque enumeration; format: cell-based, human; settings: visual cytotoxicity on HFF cells at time of HCMV plaque enumeration; read-out: 50% Inhibitory Concentration, Cytotoxicity (HFF)
Protocol: (§1) KB cells (available from the American Type Culture Collection (ATCC) 12301 Parklawn Drive, […], Md. 20852 (ATCC CCL 17)), an established human cell line derived from an epidermal oral carcinoma, were grown in minimal essential medium (MEM) (Sigma) with Hanks salts (MEM(H)) supplemented with 5% fetal calf serum. Human foreskin fibroblasts (HFF cells) (provided by the University of Michigan Hospital) and African green monkey kidney cells (BSC-1) (ATTC CCL 26) cells were grown in MEM with Earl salts (MEM(E)) supplemented with 10% fetal bovine serum. Cells were passaged according to conventional procedures and as described in Shipman, C., Jr. et al. (1976) Antimicrob. Agents Chemother. Vol. 9:120 and incorporated herein by reference. Briefly, cells were passaged at 1:2 to 1:10 dilutions according to conventional procedures by using 0.05% trypsin plus 0.02% EDTA in a HEPES buffered salt solution. HFF cells were passaged only at 1:2 dilutions.
(§2) Two different methods were used to evaluate cytotoxicity of the compounds. First, cytotoxicity produced in stationary HFF cells was determined by microscopical examination of cells not affected by the virus used in the plaque assay. Second the effect of compounds on KB cells during two population doubling times was determined by crystal violet staining and spectrophotometric quantitation of dye eluted from stained cells. This method has been utilized for the analysis of ganciclovir and zidovudine (See Prichard, M. N. et al. Antiviral Res. (1991) Vol. 35:1060-1065).
(§3) (3) Visual cytotoxicity was scored on HFF cells at the time of HCMV plaque enumeration. Inhibition of KB cell growth was determined as described in the experimental. 3L was used as a positive control for the KB cytotoxicity assay.

[2] = tested on: KB cells; experiment: Inhibition of KB cell growth (crystal violet staining); format: cell-based, human; settings: for IC50: inhibition of KB cell growth, read-out: 50% Inhibitory Concentration, Cytotoxicity (KB)
Protocol: as §1, §2, §3

[3] = tested on: HCMV; experiment: HCMV plaque (focus) reduction assay in HFF cells; format: cell-based, HCMV (Towne strain); settings: HCMV plaque assay, HFF cells; averages from two or more experiments; read-out: 50% Inhibitory Concentration, Antiviral Activity (plaque)
Protocol: (§4) A plaque purified isolate, Po, of the Towne strain of HCMV was used in all experiments and was a gift of Dr. Mark Stinski, University of Iowa. The KOS strain of HSV-1 was used and was provided by Dr. Sandra K. Weller, University of Connecticut. Stock preparations of HCMV and HSV-1 were prepared and titered as known to those of skill and the art and described in Turk, S. R. et al. (1987) Antimicrob. Agents Chemother. Vol. 31:544-550 and Shipman, C., Jr., et al. (1990) J. Virol. Methods Vol. 28:101-106, each incorporated herein by reference.
(§5) HCMV plaque reduction experiments were performed with monolayer cultures of HFF cells by a procedure similar to that referenced above for titration of the viruses and described in Devivar, R. V. et al. (1994) J. Med. Chem. Vol. 37:2942-2949. Activity of compounds against HSV-1 was evaluated using an ELISA assay.
The effect of compounds of the replication of HCMV was measured using a plaque (focus) reduction assay. For the former, HFF cells in 24-well culture dishes were infected with approximately 50 p.f.u. of HCMV per well using the procedures detailed above. Compounds dissolved in growth medium were added in four to six selected concentrations to duplicate wells following virus adsorption. Following incubation at 37° C. for 7 to 10 days, cell sheets were fixed, stained and microscopic plaques were enumerated as described above. Drug effects were calculated as a percentage of reduction in number of plaques in the presence of each drug concentration compared to the number observed in the absence of drug. DHPG (ganciclovir) was used as a positive control in all experiments.
(§6) Dose-response relationships can be used to compare drug effects. These are constructed by linearly regressing the percent inhibition of parameters derived in the preceding sections against log drug concentrations. The 50 inhibitory (I50) concentrations were calculated from the regression lines using the methods described by Goldstein. See Goldstein, A., Biostatistics: An Introductory Text, MacMillan, New York, pp. 156-161 (1964), incorporated herein by reference.
(§7) (2) A plaque assay was used to quantitate anti HCMV activity, an ELISA assay was used to quantitate activity against HSV-1. DHPG (ganciclovir) was used as a positive control for the HCMV assay.

[4] = tested on: HSV-1; experiment: HSV-1 ELISA assay; format: cell-based, HSV-1 (KOS strain); settings: averages from two or more experiments, read-out: 50% Inhibitory Concentration, Antiviral Activity (ELISA)
Protocol: as §4, §5
ELISA techniques according to standard procedures were also used to determine activity against HSV-1. Drug effects were calculated as a percentage of the reduction in virus titers in the presence of each drug concentration compared to the titer obtained in the absence of drug. Ganciclovir was used as a positive control in all experiments.
as §6, §7

**Q.** Which IC50 [1] does the source give for `CC(=O)O[C@@H]1[C@H](OC(C)=O)[C@@H](CF)O[C@H]1n1c(Cl)nc2cc(Cl)c(Cl)cc21` [Compound 12a, 2,5,6-trichloro-1-(2′,3′-di-O-acetyl-5′-deoxy-5′-fluoro-β-D-ribofuranosyl)benzimidazole] here?
**A.** 32 µM

**Q.** And the “cytotoxicity in growing KB cells (in words)” value [2]?
**A.** little or no cytoxicity

**Q.** What about the IC50 [2] of the same compound?
**A.** 100 µM

**Q.** What about the IC50 [3] of the same compound?
**A.** 0.6 µM

**Q.** What about the IC50 [4] of the same compound?
**A.** > 100 µM

**Q.** `CC(=O)O[C@@H]1[C@H](OC(C)=O)[C@@H](CCl)O[C@H]1n1c(Cl)nc2cc(Cl)c(Cl)cc21` [Compound 12b, 2,5,6-trichloro-1-(2′,3′-di-O-acetyl-5′-deoxy-5′-chloro-β-D-ribofuranosyl)benzimidazole] was tested. Which IC50 [1] did it give?
**A.** 32 µM

**Q.** What about the IC50 [2] of the same compound?
**A.** 90 µM

**Q.** What about the IC50 [3] of the same compound?
**A.** 1.4 µM

**Q.** What about the IC50 [4] of the same compound?
**A.** > 100 µM

**Q.** `CC(=O)O[C@@H]1[C@H](OC(C)=O)[C@@H](CBr)O[C@H]1n1c(Cl)nc2cc(Cl)c(Cl)cc21` [Compound 12c, 2,5,6-trichloro-1-(2′,3′-di-O-acetyl-5′-deoxy-5′-bromo-β-D-ribofuranosyl)benzimidazole] was tested. Which IC50 [1] did it give?
**A.** 32 µM

**Q.** What about the IC50 [2] of the same compound?
**A.** 60 µM

**Q.** And the IC50 [3]?
**A.** 2.7 µM

**Q.** What about the IC50 [4] of the same compound?
**A.** > 100 µM

**Q.** Which IC50 [1] does the source give for `CC(=O)O[C@@H]1[C@H](OC(C)=O)[C@@H](CI)O[C@H]1n1c(Cl)nc2cc(Cl)c(Cl)cc21` [Compound 12d, 2,5,6-trichloro-1-(2′,3′-di-O-acetyl-5′-deoxy-5′-iodo-β-D-ribofuranosyl)benzimidazole] here?
**A.** 32 µM

**Q.** What about the IC50 [2] of the same compound?
**A.** 60 µM

**Q.** And the IC50 [3]?
**A.** 2.5 µM

**Q.** What about the IC50 [4] of the same compound?
**A.** > 100 µM

**Q.** How did the IC50 [1] turn out when `O[C@@H]1[C@H](O)[C@@H](CBr)O[C@H]1n1c(Cl)nc2cc(Cl)c(Cl)cc21` [Compound 13c, 2,5,6-trichloro-1-(5′-deoxy-5′-bromo-β-D-ribofuranosyl)benzimidazole] was run?
**A.** 32 µM

**Q.** And the IC50 [2]?
**A.** 90 µM

**Q.** What about the IC50 [3] of the same compound?
**A.** 1.5 µM

**Q.** What about the IC50 [4] of the same compound?
**A.** > 100 µM

**Q.** How did the IC50 [1] turn out when `O[C@@H]1[C@H](O)[C@@H](CI)O[C@H]1n1c(Cl)nc2cc(Cl)c(Cl)cc21` [Compound 13d, 2,5,6-trichloro-1-(5′-deoxy-5′-iodo-β-D-ribofuranosyl)benzimidazole] was run?
**A.** 32 µM

**Q.** And the IC50 [3]?
**A.** 3.2 µM

**Q.** `CC(=O)O[C@@H]1[C@H](OC(C)=O)[C@@H](CN=[N+]=[N-])O[C@H]1n1c(Cl)nc2cc(Cl)c(Cl)cc21` [Compound 16a, 2,5,6-trichloro-1-(2′,3′-di-O-acetyl-5′-deoxy-5′-azido-β-D-ribofuranosyl)benzimidazole] was tested. Which IC50 [1] did it give?
**A.** 32 µM

**Q.** And the IC50 [2]?
**A.** 70 µM

**Q.** And the IC50 [3]?
**A.** 1.5 µM

**Q.** What about the IC50 [4] of the same compound?
**A.** > 100 µM

**Q.** With `CSC[C@H]1O[C@@H](n2c(Cl)nc3cc(Cl)c(Cl)cc32)[C@H](OC(C)=O)[C@@H]1OC(C)=O` [Compound 16b, 2,5,6-trichloro-1-(2′,3′-di-O-acetyl-5′-deoxy-5′-methylthio-β-D-ribofuranosyl) benzimidazole] as the compound, how does the IC50 [1] read?
**A.** 32 µM

**Q.** And the IC50 [2]?
**A.** > 100 µM

**Q.** And the IC50 [3]?
**A.** 4.8 µM

**Q.** And the IC50 [4]?
**A.** > 100 µM

**Q.** What does the source list for `CC1(C)O[C@@H]2[C@H](O1)[C@@H](CO)O[C@H]2n1c(Cl)nc2cc(Cl)c(Cl)cc21` [Compound 18, 2,5,6-Trichloro-1-(2′,3′-O-isopropylidene-β-D-ribofuranosyl)benzimidazole]?
**A.** IC50 [1]: > 100 µM; IC50 [3]: 12.4 µM

**Q.** With `CC1(C)OC2C(CN=[N+]=[N-])OC(n3c(Cl)nc4cc(Cl)c(Cl)cc43)C2O1` [Compound 19a, 2,5,6-Trichloro-1-(2′,3′-O-isopropylidene-5′-deoxy-5′-azido-β-D-ribofuranosyl) benzimidazole] as the compound, how does the IC50 [1] read?
**A.** 32 µM

**Q.** And the IC50 [3]?
**A.** 10.9 µM

**Q.** Which results are given for `CC1(C)O[C@@H]2[C@H](O1)[C@@H](CCl)O[C@H]2n1c(Cl)nc2cc(Cl)c(Cl)cc21` [Compound 19b, 2,5,6-Trichloro-1-(2′,3′-O-isopropylidene-5′-deoxy-5′-chloro-β-D-ribofuranosyl) benzimidazole]?
**A.** IC50 [1]: 66 µM; IC50 [2]: 100 µM; IC50 [3]: 13.5 µM; IC50 [4]: > 100 µM
